Measured values: US20180066322A1, “BIOMARKERS ASSOCIATED WITH CDK INHIBITORS” (NOVARTIS AG, priority 2012, published 2018)
Entries after “also recorded” stand apart in the source; their conditions may differ.

What was measured:
[1] = tested on: DLBCL models harboring mutant CCND3 (PEST-domain mutation); assay: Cell viability by Cell Titer Glo (cellular ATP), 72 hours, cells containing mutant CCND3; format: cell-based, human; settings: 10 μM to 1.5 nM
Protocol: Using the pharmacologic characterization of the COLE cell lines, cell lines containing CCND3 mutations were tested for CDKi sensitivity. DOHH-2, NU-DHL-1, SEM, SU-DHL-4, SU-DHL-6, and SU-DHL-10 cells were purchased from Deutsche Sammlung von Mikroorganismen and Zellkulturen GmbH (DSMZ). DB and Pfeiffer cells were purchased from American Type Culture Collection (ATCC). A4/FUK cells were purchased from Health Science Research Resources Bank (HSRRB). These cells were cultured in RPMI 1640 medium (ATCC) supplemented with either 10% (A4/FUK, DB, DOHH-2, Pfeiffer, and SEM cells) or 20% (NU-DHL-1, SU-DHL-4, SU-DHL-6, and SU-DHL-10) fetal bovine serum (Gibco) and incubated at 37° C./5% CO2. For screening, cells were seeded in 80 μl of medium in 96-well plates (Costar #3904) at 10,000 (DB, DOHH-2, NU-DHL-1, SEM, SU-DHL-4, SU-DHL-6, and SU-DHL-10), 15,000 (A4/FUK) or 20,000 (Pfeiffer) cell densities and incubated overnight prior to compound addition. A4/FUK, DOHH-2, NU-DHL-1, SU-DHL-10, DB, Pfeiffer, SU-DHL-4 and SU-DHL-6 cells are diffuse large B cell lymphoma (DLBCL) cell lines. SEM cells are acute lymphoblastic B cell leukemia cells.
Compound stock (5×) was freshly prepared in the appropriate culture medium, and manually added to the plates by electronic multichannel pipette. In a minimum of three replicate wells, the number & viability of cells at the time of compound addition, as well as single agent effects after 72 hours, was assessed by quantification of cellular ATP levels via Cell Titer Glo (Promega, Madison, Wis.) according to the manufacturer's protocol. Day 0 subtracted-EC^50s were calculated using standard four-parametric curve fitting (XLFit, model 205).
CDKi(1)-CDKi(3) were synthesized at Novartis Pharma AG, and compound stocks were prepared in DMSO at a final concentration of 10 mM. Working stocks were serially diluted in the appropriate cell culture medium in 3-fold increments to achieve final assay concentrations ranging from 10 μM to 1.5 nM.

[2] = tested on: DLBCL models harboring wild-type CCND3; assay: Cell viability by Cell Titer Glo (cellular ATP), 72 hours, cells containing wild type CCND3; format: cell-based, human; settings: 10 μM to 1.5 nM
Protocol: Using the pharmacologic characterization of the COLE cell lines, cell lines containing CCND3 mutations were tested for CDKi sensitivity. DOHH-2, NU-DHL-1, SEM, SU-DHL-4, SU-DHL-6, and SU-DHL-10 cells were purchased from Deutsche Sammlung von Mikroorganismen and Zellkulturen GmbH (DSMZ). DB and Pfeiffer cells were purchased from American Type Culture Collection (ATCC). A4/FUK cells were purchased from Health Science Research Resources Bank (HSRRB). These cells were cultured in RPMI 1640 medium (ATCC) supplemented with either 10% (A4/FUK, DB, DOHH-2, Pfeiffer, and SEM cells) or 20% (NU-DHL-1, SU-DHL-4, SU-DHL-6, and SU-DHL-10) fetal bovine serum (Gibco) and incubated at 37° C./5% CO2. […]
Compound stock (5×) was freshly prepared in the appropriate culture medium, and manually added to the plates by electronic multichannel pipette. In a minimum of three replicate wells, the number & viability of cells at the time of compound addition, as well as single agent effects after 72 hours, was assessed by quantification of cellular ATP levels via Cell Titer Glo (Promega, Madison, Wis.) according to the manufacturer's protocol. Day 0 subtracted-EC^50s were calculated using standard four-parametric curve fitting (XLFit, model 205). […]

Compound: CC(=O)c1c(C)c2cnc(Nc3ccc(N4CCNCC4)cn3)nc2n(C2CCCC2)c1=O [CDKi(2), PD0332991, reference compound]
- sensitivity / cell viability of cells containing mutant CCND3 [1]: more sensitive; also recorded: sensitivity

Compound: CN(C)C(=O)c1cc2cnc(Nc3ccc(N4CCNCC4)cn3)nc2n1C1CCCC1 [CDKi(1)]
- sensitivity / cell viability of cells containing mutant CCND3 [1]: increased sensitivity

Compound: CS(=O)(=O)N1CCC(NC(=O)c2[nH]ncc2NC(=O)c2c(Cl)cccc2Cl)CC1 [CDKi(3)]
- sensitivity / cell viability of cells containing wild type CCND3 [2]: more sensitive to the pan-CDK inhibitor than to the specific CDK 4/6 inhibitors; also recorded: insensitivity
- sensitivity / cell viability of cells containing mutant CCND3 [1]: more sensitive to the pan-CDK inhibitor than to the specific CDK 4/6 inhibitors; also recorded: insensitivity
